Measurements as given in patent US11166946B2 (CURATIS AG, priority 2018, dated 2021).
Like-named read-outs stand apart in the source and are kept apart here.

Key:
[1] = oral administration; biphasic clearance; cited from earlier work
[2] = test system: patients presenting with migraine with aura; assay: Randomized, double-blind, placebo controlled crossover study, aura events; format: in vivo, human
Method: A multi-center, randomized, double-blind, placebo controlled crossover study was conducted with picotamide. […] The overall study duration was 7×4 weeks. […] “Aura Events” was one of the parameters that was measured. […] These observations were particularly observed in a subgroup of patients (moderate patients) that on average had 3 to 6 aura events per month prior to study enrollment. Patients with less than 3 aura events per month could be considered mild patients and would therefore benefit to a lesser degree from treatment. Patients with 7 or more aura events could be considered severe patients that are difficult to treat.

[3] = single administration 300 mg, human subjects; cited from earlier work
mouse, rat and dog = conditions: cited from earlier work
platelets = conditions: in vitro; cited from earlier work
[4] = test system: patients with peripheral vascular disease; conditions: 300 mg, PO, t.i.d., 18-month period, 2,304 patients; cited from earlier work
mouse = conditions: in vivo, cited from earlier work
rat = conditions: in vivo, cited from earlier work

COc1ccc(C(=O)NCc2cccnc2)cc1C(=O)NCc1cccnc1 [picotamide monohydrate]
plasma clearance half-life, first rapid phase [1]: about 2 hours

COc1ccc(C(=O)NCc2cccnc2)cc1C(=O)NCc1cccnc1 [picotamide, 4-methoxy-N,N′-bis(pyridin-3-ylmethyl)benzene-1,3-dicarboxamide]
number of auras (aura events) ([2]; 300 mg twice daily 3×4 weeks, then placebo (Sequence A)): reduces the number of auras even after picotamide administration
duration of continued improvement after switch to placebo ([2]; Sequence A, after 3×4 weeks of picotamide): continued to improve for another 2×4 weeks
time to reach maximum concentration (Tmax) [3]: 30 to 45 min
tolerability after subacute and chronic treatment (mouse, rat and dog; IP and PO, mouse, rat and dog): well tolerated
embryotoxic or teratogenic effects (mouse, rat and dog; in vivo): did not induce embryotoxic or teratogenic effects
inhibition of platelet aggregation, degranulation and TxB2 production (platelets): inhibits in vitro platelet aggregation, degranulation, and TxB2 production, in a dose dependent manner
effectiveness and safety [4]: effective and well-tolerated antiplatelet drug with an incidence of adverse reactions similar to that of placebo
LD50 (mouse; ip): 942 ± 29 mg/kg
LD50 (mouse; po): > 3,000 mg/kg
LD50 (rat; ip): 685 ± 27 mg/kg
LD50 (rat; po): > 3,000 mg/kg
